In test [1] the test system is double-stranded DNA (dsDNA). As to the kind of experiment: Thermal transition (Tm) of double-stranded DNA. The class given is binding. To be noted: compound 11 at 200 μM; data not shown. The procedure:
The Tm of dsDNA with an excess amount of compound 11 (200 μM) was measured using a spectrophotometer equipped with a thermoelectric cell holder.

The next test addresses T1, Rat DNA polymerase β (Rattus norvegicus, UniProt P06766).
T1 construct: made in house; host or cells: E. coli JMpβ5
Put plainly: DNA polymerase assay, rat pol β. The class given is biochemical. To be noted: for Inhibitory mode: Lineweaver Burk plot. An excerpt:
Pol α was purified from calf thymus by immuno-affinity column chromatography as described by Tamai et al.. Recombinant rat pol β was purified from E. coli JMpβ5 as described by Date et al.. The human pol γ catalytic gene was cloned into pFastBac. Histidine-tagged enzyme was expressed using the BAC-TO-BAC HT Baculovirus Expression System according to the supplier's manual (LIFE TECHNOLOGIES, MD, USA) and purified using ProBoundresin (Invitrogen Japan, Tokyo, Japan). Human pols δ and ε were purified by the nuclear fractionation of human peripheral blood cancer cells (Molt-4) using the second subunit of pols δ and ε-conjugated affinity column chromatography, respectively. Recombinant human pols η and ι tagged with His6 at their C-terminal were expressed in SF9 insect cells using the baculovirus expression system, and were purified as described previously. A truncated form of pol κ (i.e., hDINB1DC) with 6 x His-tags attached at the C-terminal was overproduced using the BAC-to-BAC Baculovirus Expression System kit (GIBCO BRL, MD, USA) and purified as described previously. Recombinant human His-pol λ was overexpressed and purified according to a method described previously. Fish pol δ was purified from the testis of cherry salmon (Oncorhynchus masou). Pol I (α-like) from a higher plant, cauliflower inflorescence, was purified according to the methods outlined by Sakaguchi et al.. The Klenow fragment of pol I from E. coli was purchased from Worthington Biochemical Corp. (Freehold, NJ, USA). Taq pol, T4 pol, T7 RNA polymerase and T4 polynucleotide kinase were purchased from Takara (Kyoto, Japan). Bovine pancreas deoxyribonuclease I (DNase I) was obtained from Stratagene Cloning Systems (La Jolla, CA, USA).
The reaction mixtures for pol α, pol β, fish pol δ, plant pol I (α-like) and prokaryotic pols were described previously, and those for pol γ, and pols δ and ε were as described by Umeda et al. and Ogawa et al., respectively. The reaction mixtures for pols η, ι and κ were the same as for pol α, and the reaction mixture for pol λ was the same as that for pol β.
For pols, poly(dA)/oligo(dT)12-18 (A/T = 2/1) and dTTP were used as the DNA template-primer and nucleotide (i.e., dNTP) substrate, respectively. KA-A analogues (i.e., compounds 1–12) were dissolved in distilled dimethyl sulfoxide (DMSO) at various concentrations and sonicated for 30 sec. Aliquots of 4 μL of sonicated samples were mixed with 16 μL of each enzyme (final amount 0.05 units) in 50 mM Tris-HCl (pH 7.5) containing 1 mM dithiothreitol, 50% glycerol and 0.1 mM EDTA, and kept at 0 °C for 10 min. These inhibitor-enzyme mixtures (8 μl) were added to 16 μL of each of the enzyme standard reaction mixtures, and incubation was carried out at 37 °C for 60 min, except for Taq pol, which was incubated at 74 °C for 60 min. Activity without the inhibitor was considered 100%, and the remaining activity at each concentration of the inhibitor was determined relative to this value. One unit of pol activity was defined as the amount of enzyme that catalyzed the incorporation of 1 nmol of dNTP (i.e., dTTP) into synthetic DNA template-primers in 60 min at 37 °C under the normal reaction conditions for each enzyme.

For the next test, the target named is T2, Human DNA polymerase ι (Homo sapiens, UniProt Q9UNA4).
T2 construct: His6 (C); made in house; host or cells: SF9 insect cells (baculovirus)
T2 sequence (Q9UNA4 1-740): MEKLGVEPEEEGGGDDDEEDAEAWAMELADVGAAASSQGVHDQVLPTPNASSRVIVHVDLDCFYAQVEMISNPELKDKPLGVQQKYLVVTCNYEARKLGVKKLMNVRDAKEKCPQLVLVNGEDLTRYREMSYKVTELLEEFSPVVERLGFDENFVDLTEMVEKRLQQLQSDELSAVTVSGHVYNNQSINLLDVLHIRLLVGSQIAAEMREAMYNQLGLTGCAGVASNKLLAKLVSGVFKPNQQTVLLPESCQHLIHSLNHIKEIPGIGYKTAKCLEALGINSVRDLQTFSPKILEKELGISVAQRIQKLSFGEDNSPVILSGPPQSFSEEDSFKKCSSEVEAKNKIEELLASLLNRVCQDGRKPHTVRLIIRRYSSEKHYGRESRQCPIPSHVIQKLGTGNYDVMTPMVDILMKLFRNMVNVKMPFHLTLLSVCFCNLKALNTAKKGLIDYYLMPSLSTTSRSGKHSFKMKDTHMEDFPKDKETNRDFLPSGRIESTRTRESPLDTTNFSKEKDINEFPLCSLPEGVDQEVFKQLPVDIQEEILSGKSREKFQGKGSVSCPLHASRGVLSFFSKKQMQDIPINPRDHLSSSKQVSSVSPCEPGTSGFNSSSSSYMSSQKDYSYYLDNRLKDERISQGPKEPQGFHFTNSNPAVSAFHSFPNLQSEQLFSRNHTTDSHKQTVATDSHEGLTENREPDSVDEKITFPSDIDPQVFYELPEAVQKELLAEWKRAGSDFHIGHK
Put plainly: DNA polymerase assay, human pol ι. The class given is biochemical. The text has this:
Pol α was purified from calf thymus by immuno-affinity column chromatography as described by Tamai et al.. Recombinant rat pol β was purified from E. coli JMpβ5 as described by Date et al.. The human pol γ catalytic gene was cloned into pFastBac. Histidine-tagged enzyme was expressed using the BAC-TO-BAC HT Baculovirus Expression System according to the supplier's manual (LIFE TECHNOLOGIES, MD, USA) and purified using ProBoundresin (Invitrogen Japan, Tokyo, Japan). Human pols δ and ε were purified by the nuclear fractionation of human peripheral blood cancer cells (Molt-4) using the second subunit of pols δ and ε-conjugated affinity column chromatography, respectively. Recombinant human pols η and ι tagged with His6 at their C-terminal were expressed in SF9 insect cells using the baculovirus expression system, and were purified as described previously. A truncated form of pol κ (i.e., hDINB1DC) with 6 x His-tags attached at the C-terminal was overproduced using the BAC-to-BAC Baculovirus Expression System kit (GIBCO BRL, MD, USA) and purified as described previously. […]
For pols, poly(dA)/oligo(dT)12-18 (A/T = 2/1) and dTTP were used as the DNA template-primer and nucleotide (i.e., dNTP) substrate, respectively. […] Activity without the inhibitor was considered 100%, and the remaining activity at each concentration of the inhibitor was determined relative to this value. […]

For the molecule `CC1=CC[C@H]2C(C)(C)CCC[C@]2(C)[C@H]1CCCCCCCCCCCCCCCCC(=O)O` (relative stereo) [compound 11, (1S*,4aS*,8aS*)-17-(1,4,4a,5,6,7,8,8a-octahydro-2,5,5,8a-tetramethylnaphthalen-1-yl)heptadecanoic acid], in test [1], the “Thermal transition of Tm of dsDNA” value is listed as “no thermal transition of Tm was observed”. The “Relative activity of pol β” value at Rat DNA polymerase β (10 μM compound 11) is reported as 15.5 ± 0.78%; at Rat DNA polymerase β (10 μM compound 11 + 50 μM poly (rC)), 15.2 ± 0.74%; on Rat DNA polymerase β (10 μM compound 11 + 200 μg/ml BSA), 15.9 ± 1.1%; at Rat DNA polymerase β (10 μM compound 11 + 0.05 % NP-40), 96.1 ± 7.6%; on Rat DNA polymerase β (10 μM compound 11 + 0.1 % NP-40), 100 ± 8.8%; on Rat DNA polymerase β (100 μM compound 11), 3.2 ± 0.16%. Besides, the “Relative activity of pol β” value at Rat DNA polymerase β (100 μM compound 11 + 50 μM poly (rC)) worked out at 3.1 ± 0.15%; at Rat DNA polymerase β (100 μM compound 11 + 200 μg/ml BSA), 3.3 ± 0.19%; at Rat DNA polymerase β (100 μM compound 11 + 0.05 % NP-40), 62.5 ± 4.1%; at Rat DNA polymerase β (100 μM compound 11 + 0.1 % NP-40), 95.0 ± 7.6%. Further, the “Inhibitory effect on pol β compared with KA-A” value at Rat DNA polymerase β (10 and 100 μM of compound (Figure 2B)) is listed as “strongest inhibitory effect”. Also, the Ki at Rat DNA polymerase β (DNA template-primer poly(dA)/oligo(dT)12-18, Dixon plot) amounted to 1.96 µM; on Rat DNA polymerase β (nucleotide substrate dTTP, Dixon plot), 2.36 µM. For the same molecule, the Vmax on Rat DNA polymerase β (DNA template-primer poly(dA)/oligo(dT)12-18, unchanged at 0-9 μM compound 11) worked out at 111 pmol/h; on Rat DNA polymerase β (nucleotide substrate dTTP, unchanged at 0-9 μM compound 11), 62.5 pmol/h. The “fold stronger pol β inhibitor than dideoxyTTP” value at Rat DNA polymerase β (comparison with dideoxyTTP) is 4 fold. Further, the IC50 against Rat DNA polymerase β (poly(dA)/oligo(dT)12-18 and dTTP, 0.05 units enzyme) amounted to 5.5 ± 0.28 µM; at Human DNA polymerase ι, 7.84 ± 0.39 µM. Also, the Inhibitory mode entry on Rat DNA polymerase β (with respect to DNA template-primer) and on Rat DNA polymerase β (with respect to dNTP substrate) was “Competitive” in each case.

For orientation: Ki means a dissociation constant, usually derived from enzyme kinetics or from competition with a known ligand. Higher therefore signals lower affinity. Usually Vmax stands for the rate approached at saturating substrate. What is called IC50 is the midpoint of a concentration-inhibition curve.

Values taken from article PMC6253949, “The Inhibitory Action of Kohamaic Acid A Derivatives on Mammalian DNA Polymerase β” (Molecules, 2008).
